In the test the test system is anti-Aβ mAb (6E10). Put plainly: Surface plasmon resonance (SPR) binding to immobilized anti-Aβ monoclonal antibody 6E10. To be noted: 6E10 immobilized on the surface of the SPR chip.

These results are taken from patent US11345745B2, “Peptide-hinge-free flexible antibody-like molecule” (BIOMOLECULAR HOLDINGS LLC, priority 2011, dated 2022).

Description: SPR tests were carried out using a Biacore T100 instrument (Biacore AB, Uppsala, Sweden). A ligand, biotin-labeled 6E10 monoclonal antibody (Covance, Princeton, N.J.), was immobilized at a concentration of 10 mg/ml in PBS onto a CAP sensor chip, Series S, using a Biotin CAPture Kit (GE Healthcare, Piscataway, N.J.). The sensor chip was loaded with a streptavidin capture reagent and regenerated according to the manufacturer's instruction, including an additional regeneration step using 0.25 MNaOH in 30% acetonitrile. Binding of Aβ symmetroadhesins and Aβ peptides was carried out at 25° C. in 10 mM Hepes buffer, pH 7,4, 150 mM NaCl, 3 mM EDTA, and 0.005 vol % Tween-20. Data was evaluated using Biacore T100 Evaluation Software, version 2.0.3.
Accordingly, the present inventors characterized the binding of the Aβ symmetroadhesins of the present inventors to one of these antibodies (6E10) using surface plasmon resonance (SPR). The present inventors compared the binding of Aβ peptides containing the [sequence] sequence (SEQ ID No. 2) which were expected to bind to 6E10 in a one-handed manner.

Regarding “Fc6: recombinant human IgG1 Fc protein beginning at 226CPPC core hinge, N-terminal cysteine, expressed in CHO cells”, the “binding to immobilized 6E10 (observed or not)” value is “No binding”.
